Assay results from patent US6841661B2, “Glycopeptide antibacterial compounds, compositions containing same and methods of using same” (Princeton Univerisity, priority 1999, dated 2005).

Tests used:
[1] = tested on: E. faecium CL 4931 (VanA); assay: microbe, parasite or virus in culture; format: cell-based; set-up: CL4931 (in vitro testing): unit not given here; settings: Tables 7 and 8; unit not given
From the text: (§1) National Committee for Clinical Laboratory Standards (NCCLS) guidelines [Methods for Dilution Antimicrobial Susceptibility Tests for Bacteria that Grow Aerobically-Fourth Edition; Approved Standard (NCCLS Document M7-A4, January 1997)] are used to establish the assay, although variations are made to optimize the published method according to the specific needs of the present investigation.
(§2) The test panel currently includes eight enterococci and 13 staphylococci, which are selected based upon their antibiotic susceptibility profiles. The methicillin-sensitive Staphylococcus aureus (MSSA) strain MB2985 (Smith isolate) is used to assesses the potential for serum protein binding of the compounds. The paired Gram-negative strains ASP #49 (envA-) and ASP #50 (envA+) (M. Salvatore/N. Lee) are included to judge membrane effects. Table 3 presents a detailed description of the strains included in the panel, including some of the sources of the strains of bacteria.
(§3) The glycopeptide antibiotic teicoplanin is included whenever possible.
(§4) TSB, containing 10% HS* for vancomycin intermediate S. aurcus/methicillin-resistant S. aureus (VISA/MRSA) strains, is inoculated from an appropriate source (frozen broth or agar slant) and grown approximately 17 hr at 35° C. with shaking at 220 rpm. Cultures are grown in tubes with a volume of 5 ml for enterococci and 2 ml for all other strains.
(§5) Four milliliter (4 ml) overnight culture is added to 36 ml physiological saline to obtain tenfold dilutions (enterococci). Overnight culture (0.4 ml) is added to 39.6 ml saline to obtain 100-fold dilutions (all strains except enterococci). Diluted cultures are maintained on ice until time of inoculation of test plates.
(§6) The number of CFU/mL is determined on BHI agar plates, although this is not done routinely because titers of overnight cultures are relatively constant. The test media include: • BHI for enterococci and VISA/MRSA; • MH II (i.e., cation-adjusted Mueller-Hinton broth) for MRS, MSS and E. coli.; • MH II+HSA for MSSA is prepared as follows: • a. 2×MHII+86mg/ml HSA • b. Dissolve 4.3 g HSA in 50 ml autoclaved 2x MH II. • c. pH to 7.0 by adding 2M MOPS, sodium. • d. Filter sterilize using 0.22 μm Coming cellulose acetate filter, used because of reported low protein binding. • e. 1×MH II+43 mg/ml HSA • f. Dilute the 2×medium twofold and filter as above. 5.8.6. Preparation of Test Plates
(§7) Using a Denley liquid handling system (or similar automatic device), 100 μ1×medium is added to each well in columns 2-12 of a 96-well microtiter dish. Using a multichannel pipettor, 100 μl 2×medium is added to each well in column 1. Plates may be filled on the day prior to assay, wrapped in plastic bags and refrigerated.
(§8) Vancomycin, Schering 29482, and teicoplanin are prepared on a weight per volume basis using 10 mM 3-(N-morpholino)propane-sulfonic acid (MOPS) buffer pH 7. Test compounds are received in solution in appropriate solvent (typically as 1 mg/ml in DMSO) or are dissolved in appropriate solvent prior to further dilution in 10 mM MOPS buffer, ph7. Consistent with NCCLS guidelines, antibiotics are handled aseptically but are not otherwise sterilized.
(§9) 100 μl appropriately diluted antibiotic solution is added to the first well of the designated row of the 96-well microtiter dish and serially diluted by twofold across the row using the Denley liquid handling system. With the aid of a Dynatech NEC 2000 inoculator, each well of the microtiter dish is inoculated with 1.5 μl diluted overnight culture, yielding approximately 1-5×10^6 CFU/ml for enterococci and approximately 3-7×10^5 CFU/ml for all other strains. Dishes are placed in stacks of no more than five, wrapped in plastic bags and incubated at 35° C. • Indication of result(s) type (% INH, IC50, Zone size, etc.) • MIC=minimum inhibitory concentration ps 5.8.9. Interpretation of the Results on the Basis of Activity […]

[2] = tested on: E. faecalis CL 4877 (VanB); assay: microbe, parasite or virus in culture; format: cell-based; set-up: CL4877 (in vitro testing): unit not given here; settings: Tables 7 and 8; unit not given
From the text: as §1, §2, §3, §4, §5, §6, §7, §8, §9

[3] = tested on: E. faecium CL 5242 (VanA); assay: microbe, parasite or virus in culture; format: cell-based; set-up: CL5242 (in vitro testing): unit not given here; settings: Tables 7 and 8; unit not given
From the text: as §1, §2, §3, §4, §5, §6, §7, §8, §9

[4] = tested on: E. faecium CL 5053 (VanA); assay: microbe, parasite or virus in culture; format: cell-based; set-up: CL5053 (in vitro testing): unit not given here; settings: Tables 7 and 8; unit not given
From the text: as §1, §2, §3, §4, §5, §6, §7, §8, §9

[5] = tested on: CL 4931, CL 5053, CL 5242 and CL 4877; format: cell-based, E. faecium, E. faecalis; set-up: unit not given here; settings: mean of CL4931, CL5053, CL5242, CL4877; unit not given
From the text: as §1, §2, §3, §4, §5, §6, §7, §8, §9

Compound | CL4931 (in vitro testing) [1] | CL4877 (in vitro testing) [2] | CL5242 (in vitro testing) [3] | CL5053 (in vitro testing) [4] | Mean [5]
CNC(CC(C)C)C(=O)NC1C(=O)NC(CC(N)=O)C(=O)NC2C(=O)NC3C(=O)NC(C(=O)NC(C(=O)O)c4cc(O)cc(O)c4-c4cc3ccc4O)C(O)c3ccc(c(Cl)c3)Oc3cc2cc(c3OC2OC(CNCc3ccc(N)cc3)C(O)C(O)C2OC2CC(C)(NCc3ccc(OCc4ccc(Cl)c(Cl)c4)cc3)C(O)C(C)O2)Oc2ccc(cc2Cl)C1O (centres unmarked) [Compound 133] | 2 | 0.03 | 0.5 | 2 | 1.1
CNC(CC(C)C)C(=O)NC1C(=O)NC(CC(N)=O)C(=O)NC2C(=O)NC3C(=O)NC(C(=O)NC(C(=O)O)c4cc(O)cc(O)c4-c4cc3ccc4O)C(O)c3ccc(c(Cl)c3)Oc3cc2cc(c3OC2OC(CNCc3ccccc3)C(O)C(O)C2OC2CC(C)(NCc3ccc(OCc4ccc(Cl)c(Cl)c4)cc3)C(O)C(C)O2)Oc2ccc(cc2Cl)C1O (centres unmarked) [Compound 134] | 2 | 0.25 | 1 | 4 | 1.8
CNC(CC(C)C)C(=O)NC1C(=O)NC(CC(N)=O)C(=O)NC2C(=O)NC3C(=O)NC(C(=O)NC(C(=O)O)c4cc(O)cc(O)c4-c4cc3ccc4O)C(O)c3ccc(c(Cl)c3)Oc3cc2cc(c3OC2OC(CNCCc3ccc(N)cc3)C(O)C(O)C2OC2CC(C)(NCc3ccc(OCc4ccc(Cl)c(Cl)c4)cc3)C(O)C(C)O2)Oc2ccc(cc2Cl)C1O (centres unmarked) [Compound 135] | 4 | 0.06 | 1 | 4 | 2.3
CNC(CC(C)C)C(=O)NC1C(=O)NC(CC(N)=O)C(=O)NC2C(=O)NC3C(=O)NC(C(=O)NC(C(=O)O)c4cc(O)cc(O)c4-c4cc3ccc4O)C(O)c3ccc(c(Cl)c3)Oc3cc2cc(c3OC2OC(CNCc3ccc(F)cc3)C(O)C(O)C2OC2CC(C)(NCc3ccc(OCc4ccc(Cl)c(Cl)c4)cc3)C(O)C(C)O2)Oc2ccc(cc2Cl)C1O (centres unmarked) [Compound 136] | 4 | 0.12 | 1 | 4 | 2.3
CNC(CC(C)C)C(=O)NC1C(=O)NC(CC(N)=O)C(=O)NC2C(=O)NC3C(=O)NC(C(=O)NC(C(=O)O)c4cc(O)cc(O)c4-c4cc3ccc4O)C(O)c3ccc(c(Cl)c3)Oc3cc2cc(c3OC2OC(CNCc3cccc(Cl)c3)C(O)C(O)C2OC2CC(C)(NCc3ccc(OCc4ccc(Cl)c(Cl)c4)cc3)C(O)C(C)O2)Oc2ccc(cc2Cl)C1O (centres unmarked) [Compound 137] | 4 | 0.12 | 1 | 4 | 2.3
CNC(CC(C)C)C(=O)NC1C(=O)NC(CC(N)=O)C(=O)NC2C(=O)NC3C(=O)NC(C(=O)NC(C(=O)O)c4cc(O)cc(O)c4-c4cc3ccc4O)C(O)c3ccc(c(Cl)c3)Oc3cc2cc(c3OC2OC(CNCc3ccc(OC)cc3)C(O)C(O)C2OC2CC(C)(NCc3ccc(OCc4ccc(Cl)c(Cl)c4)cc3)C(O)C(C)O2)Oc2ccc(cc2Cl)C1O (centres unmarked) [Compound 138] | 8 | 0.5 | 1 | 4 | 3.4
CNC(CC(C)C)C(=O)NC1C(=O)NC(CC(N)=O)C(=O)NC2C(=O)NC3C(=O)NC(C(=O)NC(C(=O)O)c4cc(O)cc(O)c4-c4cc3ccc4O)C(O)c3ccc(c(Cl)c3)Oc3cc2cc(c3OC2OC(CNCc3ccccc3N)C(O)C(O)C2OC2CC(C)(NCc3ccc(OCc4ccc(Cl)c(Cl)c4)cc3)C(O)C(C)O2)Oc2ccc(cc2Cl)C1O (centres unmarked) [Compound 139] | 8 | 0.25 | 2 | 4 | 3.6
